Laboratory results as given in patent US8895745B2, “Bicyclic heterocyclic compounds as FGFR inhibitors” (Astex Therapeutics Limited, priority 2006, dated 2014).
pIC50: −log10 of the molar value. Structures can show the parent of a compound that is named as a salt.

Test system: LP-1 cell line
Assay: Cell-based pERK ELISA method, LP-1 cells
Settings: Homo sapiens, LP-1, read-out: IC50 less than 1 μM or at least 50% inhibition at a concentration of 1 μM, LP-1 pERK ELISA
Experimental: LP-1 or JIM-1 multiple myeloma cells were seeded in 96 well plates at 1×10^6 cells/ml in 200 ul per well in serum free media. […] Cells were incubated for 16 h at 37° C. prior to the addition of a test compound for 30 minutes. Test compounds were administered at a 0.1% final DMSO concentration. […] ELISA plates and standards were prepared according o the standard DuoSet protocols and the relative amounts of pERK to total ERK in each sample calculated according to the standard curve.
In particular, compounds of the invention were tested against the LP-1 cell line (DSMZ no.: ACC 41) derived from human multiple myeloma.

SMILES | pIC50
O=C(NCC(F)(F)F)Nc1cccc(-c2cnc3cc(N4CCOCC4)ccn23)c1 [Example 108, 1-[3-(7-Morpholin-4-yl-imidazo[1,2-a]pyridin-3-yl)-phenyl]-3-(2,2,2-trifluoro-ethyl)-urea hydrochloride salt] | > 6.00
CCNC(=O)Nc1cccc(-c2cnc3cc(-c4ccc(NCCN5CCOCC5)nc4)ccn23)c1 [Example 109, 1-Ethyl-3-(3-{7-[6-(2-morpholin-4-yl-ethylamino)-pyridin-3-yl]-imidazo[1,2-a]pyridin-3-yl}-phenyl)-urea hydro-chloride salt] | > 6.00
CCNC(=O)Nc1cccc(-c2cnc3cc(-c4ccsc4)ccn23)c1 [Example 115, 1-Ethyl-3-[3-(7-thiophen-3-yl-imidazo[1,2-a]pyridine-3-yl)-phenyl]-urea formate salt] | > 6.00
O=C(NCCF)Nc1cccc(-c2cnc3cc(-c4ccc(F)cc4)ccn23)c1 [Example 134, 1-(2-Fluoro-ethyl)-3-{3-[7-(4-fluoro-phenyl)-imidazo[1,2-a]pyridin-3-yl]-phenyl}-urea Hydrochloride] | > 6.00
O=C(NCC(F)(F)F)Nc1cccc(-c2cnc3cc(-c4ccc5c(c4)OCO5)ccn23)c1 [Example 141, Hydrochloride] | > 6.00
COc1cc(-c2ccn3c(-c4cccc(NC(=O)NCC(F)(F)F)c4)cnc3c2)ccc1F [Example 142, 1-{3-[7-(4-Fluoro-3-methoxy-phenyl)-imidazo[1,2-a]pyridin-3-yl]-phenyl}-3-(2,2,2-trifluoro-ethyl)-urea Hydrochloride] | > 6.00
O=C(NCC(F)(F)F)Nc1cccc(-c2cnc3cc(-c4cccc(F)c4)ccn23)c1 [Example 143, 1-{3-[7-(3-Fluoro-phenyl)-imidazo[1,2-a]pyridin-3-yl]-phenyl}-3-(2,2,2-trifluoro-ethyl)-urea Hydrochloride] | > 6.00
O=C(NCC(F)(F)F)Nc1cccc(-c2cnc3cc(-c4ccccc4)ccn23)c1 [Example 149, 1-[3-(7-Phenyl-imidazo[1,2-a]pyridin-3-yl)-phenyl]-3-(2,2,2-trifluoro-ethyl)-urea Hydrochloride] | > 6.00
O=C(NCC(F)(F)F)Nc1cccc(-c2cnc3cc(-c4cccc(C(=O)N5CCOCC5)c4)ccn23)c1 [Example 150, 1-(3-{7-[3-(Morpholine-4-carbonyl)-phenyl]-imidazo[1,2-a]pyridin-3-yl}-phenyl)-3-(2,2,2-trifluoro-ethyl)-urea Hydrochloride] | > 6.00
CCNC(=O)Nc1cccc(-n2cnc3cc(-c4ccc(F)cc4)ccc32)c1 [Example 159, 1-Ethyl-3-{3-[5-(4-fluoro-phenyl)-benzoimidazol-1-yl]-phenyl}-urea Hydrochloride] | > 6.00
CCNC(=O)Nc1cccc(-n2cnc3cc(-c4ccc(F)cc4)cnc32)c1 [Example 169, 1-Ethyl-3-{3-[6-(4-fluoro-phenyl)-imidazo[4,5-b]pyridin-3-yl]-phenyl}-urea] | > 6.00
O=C(NCC(F)(F)F)Nc1cccc(-n2cnc3cc(-c4ccc(F)cc4)ccc32)c1 [Example 175, 1-{3-[5-(4-Fluoro-phenyl)-benzoimidazol-1-yl]-phenyl}-3-(2,2,2-trifluoro-ethyl)-urea] | > 6.00
CCS(=O)(=O)N1CCN(c2ccn3c(-c4cccc(NC(=O)NCC(F)(F)F)c4)cnc3c2)CC1 [Example 177, 1-{3-[7-(4-Ethanesulfonyl-piperazin-1-yl)-imidazo[1,2-a]pyridin-3-yl]-phenyl}-3-(2,2,2-trifluoro-ethyl)-urea hydrochloride salt] | > 6.00
O=C(NCC(F)(F)F)Nc1cccc(-c2cnc3cc(-c4cccc(CN5CCOCC5)c4)ccn23)c1 [Example 184, 1-{3-[7-(3-Morpholin-4-ylmethyl-phenyl)-imidazo[1,2-a]pyridin-3-yl]-phenyl}-3-(2,2,2-trifluoro-ethyl)-urea Hydrochloride] | > 6.00
CC(=O)N1CCC(Oc2cccc(-c3ccn4c(-c5cccc(NC(=O)NCC(F)(F)F)c5)cnc4c3)c2)CC1 [Example 193, 1-(3-{7-[3-(1-Acetyl-piperidin-4-yloxy)-phenyl]-imidazo[1,2-a]pyridin-3-yl}-phenyl)-3-(2,2,2-trifluoro-ethyl)-urea Formate] | > 6.00
O=C(NCC(F)(F)F)Nc1cccc(-c2cnc3cc(-c4cccc(OC5CCNCC5)c4)ccn23)c1 [Example 200, 1-(3-{7-[3-(Piperidin-4-yloxy)-phenyl]-imidazo[1,2-a]pyridin-3-yl}-phenyl)-3-(2,2,2-trifluoro-ethyl)-urea] | > 6.00
O=C(NCC(F)(F)F)Nc1cccc(-c2cnc3cc(N4CCC4)ccn23)c1 [Example 202, 1-[3-(7-Azetidin-1-yl-imidazo[1,2-a]pyridin-3-yl)-phenyl]-3-(2,2,2-trifluoro-ethyl)-urea] | > 6.00
CCNC(=O)Nc1cc(-c2cnn3cc(-c4ccc(F)cc4)cnc23)ccn1 [Example 204, 1-Ethyl-3-{4-[6-(4-fluoro-phenyl)-pyrazolo[1,5-a]pyrimidin-3-yl]-pyridin-2-yl}-urea] | > 6.00
O=C1CN(Cc2cccc(-c3ccn4c(-c5cccc(NC(=O)NCC(F)(F)F)c5)cnc4c3)c2)CCN1 [Example 206, 1-(3-{7-[3-(3-Oxo-piperazin-1-ylmethyl)-phenyl]-imidazo[1,2-a]pyridin-3-yl}-phenyl)-3-(2,2,2-trifluoro-ethyl)-urea] | > 6.00
O=C(NCC(F)(F)F)Nc1cccc(-c2cnc3cc(-c4ccc(=O)n(CCCN5CCCCC5)c4)ccn23)c1 [Example 208, 1-(3-{7-[6-Oxo-1-(3-piperidin-1-yl-propyl)-1,6-dihydro-pyridin-3-yl]-imidazo[1,2-a]pyridin-3-yl}-phenyl)-3-(2,2,2-trifluoro-ethyl)-urea Hydrochloride] | > 6.00

Further lines, results first:

pIC50 | SMILES
> 6.00 | CCNC(=O)Nc1cccc(-c2cnn3cc(-c4ccc(F)cc4)cnc23)c1 [Example 111, 1-Ethyl-3-{3-[6-(4-fluoro-phenyl)-pyrazolo[1,5-a]pyrimidin-3-yl]-phenyl}-urea]
> 6.00 | Nc1ccc(-c2cnc3c(-c4cccc(NC(=O)NCC(F)(F)F)c4)cnn3c2)cn1 [Example 113, 1-{3-[6-(6-Amino-pyridin-3-yl)-pyrazolo[1,5-a]pyrimidin-3-yl]-phenyl}-3-(2,2,2-trifluoro-ethyl)-urea hydrochloride salt]
> 6.00 | CCNC(=O)Nc1cccc(-c2cnn3cc(-c4ccc(N)nc4)cnc23)c1 [Example 114, 1-{3-[6-(6-Amino-pyridin-3-yl)-pyrazolo[1,5-a]pyrimidin-3-yl]-phenyl}-3-ethyl-urea hydrochloride salt]
> 6.00 | O=C(NCC(F)(F)F)Nc1cccc(-c2cnn3cc(-c4ccc(F)cc4)cnc23)c1 [Example 123, 1-{3-[6-(4-Fluoro-phenyl)-pyrazolo[1,5-a]pyrimidin-3-yl]-phenyl}-3-(2,2,2-trifluoro-ethyl)-urea]
> 6.00 | Cn1cc(-c2cnc3c(-c4cccc(NC(=O)NCC(F)(F)F)c4)cnn3c2)cn1 [Example 127, 1-{3-[6-(1-Methyl-1H-pyrazol-4-yl)-pyrazolo[1,5-a]pyrimidin-3-yl]-phenyl}-3-(2,2,2-trifluoro-ethyl)-urea]
> 6.00 | Cn1cc(-c2ccn3c(-c4cccc(NC(=O)NCC(F)(F)F)c4)cnc3c2)cn1 [Example 128, 1-{3-[7-(1-Methyl-1H-pyrazol-4-yl)-imidazo[1,2-a]pyridin-3-yl]-phenyl}-3-(2,2,2-trifluoro-ethyl)-urea formate]
> 6.00 | CCNC(=O)Nc1cccc(-c2cnn3cc(-c4cnn(C)c4)cnc23)c1 [Example 135, 1-Ethyl-3-{3-[6-(1-methyl-1H-pyrazol-4-yl)-pyrazolo[1,5-a]pyrimidin-3-yl]-phenyl}-urea]
> 6.00 | O=C(NCCF)Nc1cccc(-c2cnn3cc(-c4ccc(F)cc4)cnc23)c1 [Example 140, 1-(2-Fluoro-ethyl)-3-{3-[6-(4-fluoro-phenyl)-pyrazolo[1,5-a]pyrimidin-3-yl]-phenyl}-urea]
> 6.00 | COc1ncc(-c2cnc3c(-c4cccc(NC(=O)NCC(F)(F)F)c4)cnn3c2)cn1 [Example 151, 1-{3-[6-(2-Methoxy-pyrimidin-5-yl)-pyrazolo[1,5-a]pyrimidin-3-yl]-phenyl}-3-(2,2,2-trifluoro-ethyl)-urea]
> 6.00 | O=C(NCC(F)(F)F)Nc1cccc(-c2cnn3cc(-c4cn[nH]c4)cnc23)c1 [Example 155, 1-{3-[6-(1H-Pyrazol-4-yl)-pyrazolo[1,5-a]pyrimidin-3-yl]-phenyl}-3-(2,2,2-trifluoro-ethyl)-urea Hydrochloride]
> 6.00 | Cn1cc(-c2cnc3c(-c4cccc(NC(=O)NCC(F)(F)F)c4)cnn3c2)ccc1=O [Example 158, 1-{3-[6-(1-Methyl-6-oxo-1,6-dihydro-pyridin-3-yl)-pyrazolo[1,5-a]pyrimidin-3-yl]-phenyl}-3-(2,2,2-trifluoro-ethyl)-urea]
> 6.00 | O=C(NCC(F)(F)F)Nc1cccc(-c2cnn3cc(-c4cccc(C(=O)N5CCOCC5)c4)cnc23)c1 [Example 165, 1-(3-{6-[3-(Morpholine-4-carbonyl)-phenyl]-pyrazolo[1,5-a]pyrimidin-3-yl}-phenyl)-3-(2,2,2-trifluoro-ethyl)-urea]
> 6.00 | O=C(NCC(F)(F)F)Nc1cccc(-c2cnc3cc(-c4ccc(F)nc4)ccn23)c1 [Example 174, 1-{3-[7-(6-Fluoro-pyridin-3-yl)-imidazo[1,2-a]pyridin-3-yl]-phenyl}-3-(2,2,2-trifluoro-ethyl)-urea]
> 6.00 | O=C(NCC(F)(F)F)Nc1cccc(-n2cnc3cc(-c4ccc(F)cc4)cnc32)c1 [Example 179]
> 6.00 | Cc1ccc(-c2cnc3c(-c4cccc(NC(=O)NCC(F)(F)F)c4)cnn3c2)o1 [Example 180]
> 6.00 | O=C(NCC(F)(F)F)Nc1cccc(-c2cnn3cc(-c4cccc(CN5CCOCC5)c4)cnc23)c1 [Example 189, 1-{3-[6-(3-Morpholin-4-ylmethyl-phenyl)-pyrazolo[1,5-a]pyrimidin-3-yl]-phenyl}-3-(2,2,2-trifluoro-ethyl)-urea Hydrochloride]
> 6.00 | CCNC(=O)Nc1cncc(-c2cnn3cc(-c4ccc(F)cc4)cnc23)c1 [Example 197, 1-Ethyl-3-{5-[6-(4-fluoro-phenyl)-pyrazolo[1,5-a]pyrimidin-3-yl]-pyridin-3-yl}-urea]
